Reference: ChEMBL document CHEMBL1141495, “Isoindol-1,3-dione and isoindol-1-one derivatives with high binding affinity to beta-amyloid fibrils” (Bioorg Med Chem Lett, 2008)

assay: Displacement of [125I]TZDM from beta amyloid 42 fibril

Row | SMILES | Ki [nM]
1 | COc1ccc2c(c1)C(=O)N(c1ccc(N(C)C)cc1)C2=O | 0.71
2 | CN(C)c1ccc(N2C(=O)c3ccccc3C2=O)cc1 | 0.69
3 | CN(C)c1ccc(N2C(=O)c3ccc(F)cc3C2=O)cc1 | 0.56
4 | COc1cc(N2C(=O)c3ccccc3C2=O)ccc1N(C)C | 0.66
5 | COc1cc(N2C(=O)c3ccc(F)cc3C2=O)ccc1N(C)C | 0.78
6 | COc1cc(N2C(=O)c3ccc(Br)cc3C2=O)ccc1N(C)C | 0.42
7 | COc1ccc2c(c1)CN(c1ccc(N(C)C)cc1)C2=O | 0.94
8 | CN(C)c1ccc(N2Cc3cc(F)ccc3C2=O)cc1 | 0.49
9 | CN(C)c1ccc(N2Cc3cc(Cl)ccc3C2=O)cc1 | 0.76
10 | Cc1ccc2c(c1)C(=O)N(c1ccc(N(C)C)cc1)C2 | 0.76
11 | CN(C)c1ccc(N2Cc3ccc(Cl)cc3C2=O)cc1 | 0.5
12 | COc1cc(N2Cc3ccccc3C2=O)ccc1N(C)C | 0.9
13 | COc1ccc(N2Cc3ccccc3C2=O)cc1N(C)C | 0.65
14 | CN(C)c1ccc(N2C(=O)c3ccc(N(C)C)cc3C2=O)cc1 | 0.7
15 | CN(C)c1ccc(N2Cc3ccc(F)cc3C2=O)cc1 | 0.93
16 | COc1cc(N2Cc3ccc(C)cc3C2=O)ccc1N(C)C | 0.46
17 | COc1cc(N2C(=O)c3ccc(Cl)cc3C2=O)ccc1N(C)C | 0.7
18 | CN(C)c1cccc(N2Cc3ccccc3C2=O)c1 | 0.57
19 | CN(C)c1cccc(N2C(=O)c3ccccc3C2=O)c1 | 0.46
20 | COc1ccc(N2C(=O)c3ccccc3C2=O)cc1N(C)C | 0.44
21 | CN(C)c1ccc(N2Cc3ccccc3C2=O)cc1 | 0.58
22 | CN(C)c1ccc(N2Cc3cc(Br)ccc3C2=O)cc1 | 0.81
23 | Cc1ccc2c(c1)C(=O)N(c1ccc(N(C)C)cc1)C2=O | 0.5
24 | CC(C(=O)O)c1ccc(N2Cc3ccccc3C2=O)cc1 (stereo not given) [INDOPROFEN] | 0.52
25 | CNc1ccc(-c2nc3ccc(O)cc3s2)cc1 [PITTSBURGH COMPOUND B UNLABELLED] | 0.7
